# According to patent publication US5916915A, “Water-in-stable L-ascorbic acid derivative and a method for preparation thereof, and a skin-whitening cosmetic composition containing the same” (priority 1997, dated 1999):
# “Also recorded” adds a separate entry of the source.
# Key:
# [1] = Stability in an aqueous base: precipitation and discoloration; format: physicochemical; set-up: key: -: No precipitation; +: Slight precipitation; ++: Some precipitation; +++: Severe precipitation; conditions: 3 g in 100 ml water
# Protocol: Each 3 g of compounds of Preparation Ex. 3 and Ex. 6 and L-ascorbic acid 2-phosphate magnesium was dissolved in 100 ml of distilled water, and then maintained in a thermostat of 50° C. for 30 minutes.
# Colorless or pale-yellow
# +++ Severe precipitation
# skin of healthy females [2] = test: Repeat Insult Human Patch Test; format: in vivo
# Protocol: Test was carried out for twenty(20) of healthy females aging 20~30 years according to CTFA Guideline(The Cosmetic, Toiletry and Fragrance Association. Inc. Washington, D.C., 20023, 1991).
# The back of the subjected was washed with 70% of propanol and dried, and then, applied with a finn chamber containing 20 μl of patch base incorporating 10% of AsA-APPA of Preparation Ex. 2. Applications were repeated every 24 hours for 3 weeks (Induction Period). After about 2 weeks, Challenge Insult Patch was carried out. At this step, the sites tested during the induction period and new sites were applied with the patches for 48 hours. […] And, skin irritation was evaluated according to ICDRG(International Contact Dermatitis Research Group)'s criterion.
# [3] = test system: eye of New Zealand White rabbits; test: Eye Irritation Test; format: in vivo; conditions: rabbit
# Protocol: Test was carried out using the nine(9) of New Zealand White rabbits.
# 0.1 ml of AsA-APPA of Preparation Ex. 2 was diluted with physiological saline to give 10% of test sample. This test sample was dropped onto the right eye of each rabbit, taking the left eye as a control. After 20~30 seconds, only three(3) rabbits of them were washed sufficiently with the sterilized saline.
# skin of healthy females [4] = test: Human Patch Test; format: in vivo
# Protocol: Test was carried out for thirty(30) of healthy females aging 20~30 years according to CTFA Guideline(The Cosmetic, Toiletry and Fragrance Association. Inc. Washington, D.C., 20023, 1991).
# The back of the subjected was washed with 70% of ethanol and dried, and then, applied with a finn chamber containing 20 μl of patch base incorporating 10% of AsA-APPA of Preparation Ex. 2. The finn chamber was fixed to the tested site using a micropore tape. 24 hours later, the tape and the chamber were removed, and the tested site was marked with marking pen. After 24 hours or 48 hours, skin responses of the tested sites were observed and skin irritation were evaluated according to ICDRG(International Contact Dermatitis Research Group)'s criterion.
# *Average Response = Grade of the sample/4(Maximum grade) × 30(Total
# [5] = Acute Dermal Toxicity Test; format: in vivo, ICR mice; conditions: mouse, in vivo, topical or ocular, acute dermal, ICR mice, Litchfield-Wilcoxon's method; read-out: LD50 (lethal dose)
# Protocol: (§1) 4 ml/kg of AsA-APPA of Preparation Ex. 2 was diluted with physiological saline to give 50% of test sample. This test sample was percutaneously administrated into the ten(10) of ICR mice(five males and five females) weighing 20~33 g (administrated amount of AsA-APPA: 2 g/kgweight). As a control, 4 ml/kg of physiological saline was percutaneously administrated into the ten(10) of ICR mice(five males and five females) weighing 20~33 g (administrated amount of AsA-APPA: 0 g/kgweight).
# (§2) Before about 24 hours, the back of each mouce was depilated in a size of 1.5×1.5 cm^2. Then, each depilated site was covered with a gauze of 1×1 cm^2 applied with one of the test and control samples, and fixed using an non-irritative tape, for 24 hours.
# (§3) At that day, general appearance was observed every hour for 6 hours. And, from the next day to 14 days, every day, were observed general appearance(clinical symptoms), toxic symptoms, death and the like. Further, change of weights was measured at 1, 3, 7 and 14 days.
# (§4) Any of the mice dead during observation period were immediately subjected to autopsy, and the survival mice were subjected to autopsy after observation period.
# ICR mice [6] = test: Acute Dermal Toxicity Test; format: in vivo
# Protocol: as §1, §2, §3, §4
# Acute Oral Toxicity Test = format: in vivo, ICR mice; conditions: mouse, in vivo, po, acute oral, ICR mice, Litchfield-Wilcoxon's method; read-out: LD50 (lethal dose)
# Protocol: as §1, with “10 ml/kg” for “4 ml/kg”, “was orally” for “was percutaneously”, “AsA-APPA: 5” for “AsA-APPA: 2”, “control, 10” for “control, 4”
# (§5) At that day, general appearance was observed every hour for 6 hours. And, from the next day to 14 days, every day, were observed general appearance(clinical symptoms), toxic symptoms, death and the like. Further, change of weight was measured at 1, 3, 7 and 14 days.
# as §4
# ICR mice [7] = test: Acute Oral Toxicity Test; format: in vivo
# Protocol: as §1, with “10 ml/kg” for “4 ml/kg”, “was orally” for “was percutaneously”, “AsA-APPA: 5” for “AsA-APPA: 2”, “control, 10” for “control, 4”
# as §5, §4
# skin of Guinea pigs = test: Skin Sensitization Test (Guinea Pig Maximization test); format: in vivo, Guinea pigs (Hartley Albino Guinea Pig)
# Protocol: Test was carried out for six(6)(three males and three females) of Guinea pigs(Hartley Albino Guinea Pig) weighing 300~360 g according to Maggnusson and Kligman's procedure (Guinea Pig Maximization test).
# In order to determine the concentrations of the test samples to be applied in Induction test for light irritation and Challenge test for no irritation, for three(3) of Guinea pigs for each test, primary irritations were taken with 6.25%, 12.5% and 25.0% of the test samples, respectively. For each animal, each site (2.5×2.5 cm) of right and left of the back was treated with three concentrations of the test samples in an amount of 0.5 ml/site of AsA-APPA, and then covered with a gauze, which was fixed using an non-irritative tape, for 24 hours. Next, 0.1 ml of 25% of AsA-APPA was intradermally injected to each of two pigs(one male and one female) using 26-gauge 1/2-inched needle. 7 Days later, the same sites were depilated and pretreated with 10% of SLS in petrolatum. Then, each tested site was treated with 0.5 ml/site of AsA-APPA, and then covered with a gauze, which was fixed using an non-irritative tape, for 48 hours. 2 Weeks later, the left back of the depilated pig was treated with the test sample and the right back was treated with physiological saline. 24 Hours later, the tested sites were washed with physiological saline.
# As a control, test was carried out using physiological saline, instead of the test sample, in the same procedure.
# [8] = test system: skin of New Zealand White male rabbits; test: Primary Skin Irritation Test; format: in vivo; conditions: rabbit
# Protocol: Test was carried out for twelve(12) of New Zealand White male rabbits whose backs were depilated before 24 hours. And, 0.1 ml of AsA-APPA of Preparation Ex. 2 was diluted with physiological saline to give 50% of test sample.
# The test sample was applied to two sites (2.5 cm×2.5 cm) of the right back (amount of AsA-APPA per site: 0.5 ml). As a control, two sites (2.5 cm×2.5 cm) of the left back were treated with 1.0 ml of physiological saline. Each tested site was covered with a gauze, which was fixed using an non-irritative tape. 24 Hours later, the tested sites were washed with physiological saline.
# fibroblast = test: Proliferation of fibroblast (MTT method); format: cell-based; conditions: as low as, DMEM
# Protocol: The skin obtained from new epidermal tissue was treated with Type 1 collagenase to remove epidermis. The obtained fibroblast was cultured on Dulbecco's Modified Eagle's Media(DMEM).
# Amount of fibroblast was measured by way of MTT method.
# [9] = Stability of AsA-APPA in pH 7 buffer at 50° C. (residual ratio by UV absorbance); format: physicochemical
# Protocol: L-Ascorbic acid and AsA-APPA produced in Preparation Ex. 2 were dissolved in buffer solutions of pH 7 to concentrations of 50 μM, respectively, and then maintained in a thermostat of 50° C. At constant intervals, UV absorbances were measured at 259 nm for AsA-APPA and at 266 nm for L-ascorbic acid, to evaluate the stabilities of the test samples as residual ratio(%).
# [10] = 10% AsA-APPA, text and Table 5, unit not given
smiles,measurement,setting,value
NCCCOP(=O)(O)OC1=C(O)[C@@H]([C@@H](O)CO)OC1=O [Prep. Ex. 3],Precipitation,[1]; day 1,-
same,Precipitation,[1]; day 3,-
same,Precipitation,[1]; day 5,-
same,Precipitation,[1]; day 7,-
same,Precipitation,[1]; day 9,-
same,Precipitation,[1]; day 11,-
same,Precipitation,[1]; day 13,-
same,Precipitation,[1]; day 15,-
same,Precipitation,[1]; day 30,-
"NCCCOP(=O)(O)OC1=C(O)[C@@H]([C@@H](O)CO)OC1=O [AsA-APPA, 2-(3-aminopropanephosphoric acid)-L-ascorbate]",Evaluation of repeat insult human patch test,skin of healthy females [2]; 10% AsA-APPA,No irritative
same,repeat irritation or sensitive irritation,skin of healthy females [2]; 10% AsA-APPA,no repeat irritation or no sensitive irritation was observed
same,"Average response, challenge period","skin of healthy females [2]; 10% AsA-APPA, unit not given",0
same,"Average response, induction period",skin of healthy females [2]; [10],0.14
same,"Average response, challenge period","skin of healthy females [2]; n = 20, 10% AsA-APPA, Table 4",0%
same,"Average response, induction period","skin of healthy females [2]; n = 20, 10% AsA-APPA, Table 4",0.14%
same,Induction Period response,"skin of healthy females [2]; week 1, 10% AsA-APPA",1
same,Evaluation of eye irritation,[3],No irritative
same,"eye irritation on cornea, iris and conjunctiva","[3]; after 24 hours or 48 hours, 10% test sample","no eye irritation on cornea, iris and conjunctiva was observed"
same,Irritation rate of eye mucos (M.O.I),[3]; washed and non-washed cases,0
same,Evaluation of human patch test,skin of healthy females [4]; 10% AsA-APPA,"primary irritative response, except for 1% of erythema, was hardly observed; also recorded: No irritative"
same,Average response,skin of healthy females [4]; [10],0.42
same,Response,"skin of healthy females [4]; 24 hr., N = 30, 10% AsA-APPA, erythema",1%
same,irritation after 48 hours,"skin of healthy females [4]; 48 hours, 10% AsA-APPA",all the irritation fade away
same,Response,"skin of healthy females [4]; 48 hr., N = 30, 10% AsA-APPA",0%
same,Average response,"skin of healthy females [4]; N = 30, 10% AsA-APPA, Table 3",0.42%
same,LD50 at 336 h,[5],2000 mg/kg
same,Evaluation,ICR mice [6]; Acute dermal toxicity test,Innoxious
same,LD50 (lethal dose),"ICR mice [6]; acute dermal, ICR mice, Litchfield-Wilcoxon's method, 20160 min",> 2000 mg/kg
same,autopsy findings,"ICR mice [6]; percutaneous, 2 g/kg",no abnormal symptom was observed
same,weight changes in comparison to the control,"ICR mice [6]; percutaneous, 2 g/kg, 1, 3, 7 and 14 days",no significant difference
same,death,"ICR mice [6]; percutaneous, 2 g/kg, 14 days",no dead mice
same,LD50 at 336 h,Acute Oral Toxicity Test,5000 mg/kg
same,Evaluation,ICR mice [7]; Acute oral toxicity test,Innoxious
same,LD50 (lethal dose),"ICR mice [7]; acute oral, ICR mice, Litchfield-Wilcoxon's method, 20160 min",> 5000 mg/kg
same,autopsy findings,"ICR mice [7]; oral, 5 g/kg",no abnormal symptom was observed
same,weight changes in comparison to the control,"ICR mice [7]; oral, 5 g/kg, 1, 3, 7 and 14 days",no significant difference
same,death,"ICR mice [7]; oral, 5 g/kg, 14 days",no dead mice
same,Evaluation of skin sensitization,skin of Guinea pigs; Guinea pig,very safe to the skin
same,skin abnormality such as erythema and edema,"skin of Guinea pigs; Guinea pig, 24, 48 and 72 hours after removing the patches",no skin abnormality such as erythema and edema was observed
same,Kligman's grade,"skin of Guinea pigs; Guinea pig, Kligman's criterion",1
same,Evaluation of primary skin irritation,[8],non-irritative or very low-irritative
same,skin abnormality such as erythema and edema,[8]; 24 or 72 hours after removing the patches,no skin abnormality such as erythema and edema was observed
same,Draize's PII (Primary Irritation Index),[8]; due to erythema,0.13
same,concentration showing effective fibroblast proliferation,fibroblast,10 mM
same,stability in neutral aqueous solution,"[9]; pH 7, 50° C.",very stable
same,"remaining at 0.5 h, 50 µM","[9]; ph 7 buffer, 30 min., pH 7, 50 μM, 50° C.",100%
same,"remaining at 1 h, 50 µM","[9]; ph 7 buffer, 1 hr., pH 7, 50 μM, 50° C.",100%
same,"remaining at 3 h, 50 µM","[9]; ph 7 buffer, 3 hr., pH 7, 50 μM, 50° C.",100%
same,"remaining at 6 h, 50 µM","[9]; ph 7 buffer, 6 hr., pH 7, 50 μM, 50° C.",100%
same,"remaining at 24 h, 50 µM","[9]; ph 7 buffer, 24 hr., pH 7, 50 μM, 50° C.",99.1%
same,"remaining at 144 h, 50 µM","[9]; ph 7 buffer, 6 days, pH 7, 50 μM, 50° C.",95.5%
same,"remaining at 240 h, 50 µM","[9]; ph 7 buffer, 10 days, pH 7, 50 μM, 50° C.",93.5%
O=C1O[C@H]([C@@H](O)CO)C(O)=C1O [L-ascorbic acid],time to decomposition,"[9]; about, neutral aqueous solution, 50° C.",≤ 1 h
"O=C1O[C@H]([C@@H](O)CO)C(O)=C1OP(=O)([O-])[O-].[Mg+2] [compound 1, L-ascorbic acid 2-phosphate magnesium, reference compound]",Precipitation,[1]; day 1,-
same,Precipitation,[1]; day 3,+
same,Precipitation,[1]; day 5,+
same,Precipitation,[1]; day 7,++
same,Precipitation,[1]; day 9,++
same,Precipitation,[1]; day 11,++
same,Precipitation,[1]; day 13,+++
same,Precipitation,[1]; day 15,+++
same,Precipitation,[1]; day 30,+++
